Source: patent US20230330112A1, “COMPOSITION AND TREATMENT FOR CANCER WITH MUTATIONS” (BRIDGE BIOTHERAPEUTICS, INC., priority 2022, published 2023)

Experiment: Phase 1 study of Compound A for NSCLC, safety
Assay type: in vivo, human
Procedure: A first-in-human phase 1 study is ongoing to evaluate the safety of Compound A, including a dose-escalation phase to characterize dose-limiting toxicities (DLTs) (FIG. 6) and determine the recommended phase 2 dose (NCT04820023). Eligibility criteria included advanced-stage NSCLC with an activating EGFR mutation and disease progression on at least one prior EGFR inhibitor. A measurable lesion was required for exploratory evaluation of efficacy. Starting from 20 mg QD (once daily; every day), Compound A dose levels were escalated after evaluating dose-DLT relationships and toxicity probabilities during the first 21 days of dosing.
All enrolled patients underwent ctDNA analysis (Guardant360, Guardant Health) at screening and every 6 weeks throughout treatment, which was compared to imaging at the same time points. Changes in allelic frequency were calculated as per the proprietary algorithm of Guardant Health (7). Intra-patient dose-escalation to the next dose level was allowed. Plasma samples were collected at prespecified time points at cycle 2, Day 1 following multiple doses (steady state) of Compound A in the dose-escalation cohorts, and the plasma concentrations were determined by a validated LC-MS/MS method with the LLOQ established at 1 ng/mL.

## COc1cc(N2CCC(N3CCN(C)CC3)CC2)ccc1Nc1ncc(Cl)c(Nc2ccccc2NS(C)(=O)=O)n1 [Compound A, N-(2-((5-chloro-2-((2-methoxy-4-(4-(4-methylpiperazin-1-yl)piperidin-1-yl)phenyl)amino)pyrimidin-4-yl)amino)phenyl)methanesulfonamide]
20 mg QD (N = 4)
  Anorexia, All grade, %: 0%
  Anorexia, Grade ≥ 3, %: 0%
  Any TEAE, All grade, %: 75%
  Any TEAE, Grade ≥ 3, %: 25%
  Constipation, All grade, %: 0%
  Constipation, Grade ≥ 3, %: 0%
  Diarrhea, All grade, %: 0%
  Diarrhea, Grade ≥ 3, %: 0%
  Dizziness, All grade, %: 0%
  Dizziness, Grade ≥ 3, %: 0%
  Dyspepsia, All grade, %: 0%
  Dyspepsia, Grade ≥ 3, %: 0%
  Nausea, All grade, %: 0%
  Nausea, Grade ≥ 3, %: 0%
  Neutropenia/Neutrophil count decreased, All grade, %: 0%
  Neutropenia/Neutrophil count decreased, Grade ≥ 3, %: 0%
  Platelet count decreased, All grade, %: 0%
  Platelet count decreased, Grade ≥ 3, %: 0%
  Serious TEAE, All grade, %: 0%
  Serious TEAE, Grade ≥ 3, %: 0%
  TEAE leading to Dose interruption, All grade, %: 0%
  TEAE leading to Dose interruption, Grade ≥ 3, %: 0%
  TEAE leading to Dose permanently discontinued, All grade, %: 0%
  TEAE leading to Dose permanently discontinued, Grade ≥ 3, %: 0%
  TEAE leading to Dose reduced, All grade, %: 0%
  TEAE leading to Dose reduced, Grade ≥ 3, %: 0%
  Vomiting, All grade, %: 0%
  Vomiting, Grade ≥ 3, %: 0%
80 mg QD (N = 3)
  Anorexia, All grade, %: 0%
  Anorexia, Grade ≥ 3, %: 0%
  Any TEAE, All grade, %: 67%
  Any TEAE, Grade ≥ 3, %: 0%
  Constipation, All grade, %: 33%
  Constipation, Grade ≥ 3, %: 0%
  Diarrhea, All grade, %: 0%
  Diarrhea, Grade ≥ 3, %: 0%
  Dizziness, All grade, %: 0%
  Dizziness, Grade ≥ 3, %: 0%
  Dyspepsia, All grade, %: 33%
  Dyspepsia, Grade ≥ 3, %: 0%
  Nausea, All grade, %: 0%
  Nausea, Grade ≥ 3, %: 0%
  Neutropenia/Neutrophil count decreased, All grade, %: 0%
  Neutropenia/Neutrophil count decreased, Grade ≥ 3, %: 0%
  Platelet count decreased, All grade, %: 0%
  Platelet count decreased, Grade ≥ 3, %: 0%
  Serious TEAE, All grade, %: 0%
  Serious TEAE, Grade ≥ 3, %: 0%
  TEAE leading to Dose interruption, All grade, %: 0%
  TEAE leading to Dose interruption, Grade ≥ 3, %: 0%
  TEAE leading to Dose permanently discontinued, All grade, %: 0%
  TEAE leading to Dose permanently discontinued, Grade ≥ 3, %: 0%
  TEAE leading to Dose reduced, All grade, %: 0%
  TEAE leading to Dose reduced, Grade ≥ 3, %: 0%
  Vomiting, All grade, %: 33%
  Vomiting, Grade ≥ 3, %: 0%
160 mg QD (N = 4)
  Anorexia, All grade, %: 0%
  Anorexia, Grade ≥ 3, %: 0%
  Any TEAE, All grade, %: 75%
  Any TEAE, Grade ≥ 3, %: 0%
  Constipation, All grade, %: 25%
  Constipation, Grade ≥ 3, %: 0%
  Diarrhea, All grade, %: 0%
  Diarrhea, Grade ≥ 3, %: 0%
  Dizziness, All grade, %: 0%
  Dizziness, Grade ≥ 3, %: 0%
  Dyspepsia, All grade, %: 0%
  Dyspepsia, Grade ≥ 3, %: 0%
  Nausea, All grade, %: 25%
  Nausea, Grade ≥ 3, %: 0%
  Neutropenia/Neutrophil count decreased, All grade, %: 0%
  Neutropenia/Neutrophil count decreased, Grade ≥ 3, %: 0%
  Platelet count decreased, All grade, %: 0%
  Platelet count decreased, Grade ≥ 3, %: 0%
  Serious TEAE, All grade, %: 25%
  Serious TEAE, Grade ≥ 3, %: 0%
  TEAE leading to Dose interruption, All grade, %: 0%
  TEAE leading to Dose interruption, Grade ≥ 3, %: 0%
  TEAE leading to Dose permanently discontinued, All grade, %: 0%
  TEAE leading to Dose permanently discontinued, Grade ≥ 3, %: 0%
  TEAE leading to Dose reduced, All grade, %: 0%
  TEAE leading to Dose reduced, Grade ≥ 3, %: 0%
  Vomiting, All grade, %: 25%
  Vomiting, Grade ≥ 3, %: 0%
320 mg QD
  Treatment-related adverse events of grade ≥3: occurred
320 mg QD (N = 3)
  Anorexia, All grade, %: 33%
  Anorexia, Grade ≥ 3, %: 0%
